# Data published in ChEMBL document CHEMBL5143625, “Isolation, synthesis and bioactivity evaluation of isoquinoline alkaloids from Corydalis hendersonii Hemsl. against gastric cancer in vitro and in vivo” (Bioorg Med Chem, 2022).
# Assays:
# GES1 = experiment: Antiproliferative activity against human GES1 cells assessed as reduction in cell viability after 24 hrs by MTT assay; format: functional, cell-based; conditions: GES1, 24 h
# HGC-27 = experiment: Antiproliferative activity against human HGC-27 cells assessed as reduction in cell viability after 24 hrs by MTT assay; format: functional, cell-based; conditions: HGC-27, 24 h
# MGC-803 [1] = experiment: Antiproliferative activity against human MGC-803 cells assessed as reduction in cell viability after 24 hrs by MTT assay; format: functional, cell-based; conditions: MGC-803, 24 h
# [2] = Toxicity in immunodeficient nude mouse xenografted with human MGC-803 cells assessed as reduction in body weight at 10 mg/kg, ip administered for 3 weeks relative to control; format: organism-based; design: scale not given: the % may be the effect or the level left; conditions: in vivo, 504 h
# MGC-803 [3] = experiment: Antitumor activity against human MGC-803 cells xenografted in immunodeficient nude mouse assessed as tumor weight at 10 mg/kg, ip administered for 3 weeks (reference value: 157.8 mg); format: functional
# MGC-803 [4] = experiment: Antitumor activity against human MGC-803 cells xenografted in immunodeficient nude mouse assessed as tumor volume at 10 mg/kg, ip administered for 3 weeks (reference value: 1039.6 mm3); format: functional
SMILES,IC50 (GES1) [µM],IC50 (HGC-27) [µM],IC50 (MGC-803 [1]) [µM],Activity [2] [%],Activity (MGC-803 [3]) [mg],Activity (MGC-803 [4]) [mm3]
COc1cc2c(cc1O)C1Cc3ccc4c(c3CN1CC2)OCO4 (stereo not drawn) [CHEILANTHIFOLINE],114,38.3,83.2,–,–,–
COc1cc2c(cc1Cc1nccc3cc4c(cc13)OCO4)OCO2,> 150,122,> 150,–,–,–
O=C1NCCc2cc3c(cc21)OCO3 [NOROXYHYDRASTININE],> 150,120,> 150,–,–,–
CN1CCc2cc3c(cc2C(=O)Cc2ccc4c(c2C1)OCO4)OCO3,> 150,121,94.5,–,–,–
COc1cc2c(cc1C(=O)c1nccc3cc4c(cc13)OCO4)OCO2,76,9.3,7.8,–,–,–
CCOC(=O)c1c(C(=O)c2nccc3cc4c(cc23)OCO4)ccc2c1OCO2,147,66.1,76,–,–,–
COc1cc2c(cc1OC)C1Cc3ccc4c(c3CN1CC2)OCO4 (stereo not drawn),> 150,81,94.3,–,–,–
O=c1c2c3c(ccc2cc2n1CCc1cc4c(cc1-2)OCO4)OCO3,> 150,54.6,61.5,–,–,–
COc1ccc2c(c1OC)CN(C)CCc1cc3c(cc1C(=O)C2)OCO3 [ALLOCRYPTOPINE],> 150,97.8,109,–,–,–
c1cc2c(c3c1CC1c4cc5c(cc4CCN1C3)OCO5)OCO2 (stereo not drawn),> 150,55.1,107,–,–,–
COc1cc2c(cc1O)[C@@H]1Cc3ccc(OC)c(O)c3CN1CC2 [SCOULERINE],95.3,6.1,12.6,–,–,–
O=c1[nH]cc(F)c(=O)[nH]1 [FLUOROURACIL],49.6,45.2,28.6,14.2,157.8,375.4
CN1CCc2cc3c(cc2[C@H]1[C@H]1OC(=O)c2c1ccc1c2OCO1)OCO3,> 150,100,> 150,–,–,–
COc1cc(/C=C/C(=O)NCCc2ccc(O)cc2)ccc1O [N-TRANS-FERULOYL TYRAMINE],> 150,84.5,98.3,–,–,–
CC(=O)c1ccc2c(c1Cn1ccc3cc4c(cc3c1=O)OCO4)OCO2,137,53.8,79.9,–,–,–
